Source: the supplement of paper PMC8671470

Experiments:
Assay in all cases: cell viability (% survival relative to DMSO control); higher = less cytotoxic
Settings in all cases: 72 h
[1] = system: myeloid leukemia patient primary cells Pat.10
How it was run: (§1)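 Seventy compounds were pre-printed on 384-well plates at five tenfold concentrations between 1 and 10,000 nM, in duplicate. Thawed mononuclear cells purified by Ficoll from AML or CML patients were added at 10,000 cells/well in RPMI 1640 with 10% FBS for 72 h. Viability by CellTiter-Glo was normalised to DMSO and 10 μM proteasome-inhibitor wells. Where stated, area under the curve was taken from log-logistic fits made with the drc and PharmacoGx R packages, each fit having four parameters.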

[2] = system: myeloid leukemia patient primary cells Pat.13
How it was run: as §1

[3] = system: myeloid leukemia patient primary cells Pat.14
How it was run: as §1

[4] = system: myeloid leukemia patient primary cells Pat.8
How it was run: as §1

| SMILES | cell viability ([1]; 1 nM) [%] | cell viability ([1]; 10 nM) [%] | cell viability ([1]; 100 nM) [%] | cell viability ([1]; 1000 nM) [%] | cell viability ([1]; 10000 nM) [%] | cell viability ([2]; 1 nM) [%] | cell viability ([2]; 10 nM) [%] | cell viability ([2]; 100 nM) [%] | cell viability ([2]; 1000 nM) [%] | cell viability ([2]; 10000 nM) [%] | cell viability ([3]; 1 nM) [%] | cell viability ([3]; 10 nM) [%] | cell viability ([3]; 100 nM) [%] | cell viability ([3]; 1000 nM) [%] | cell viability ([3]; 10000 nM) [%] | cell viability ([4]; 1 nM) [%] | cell viability ([4]; 10 nM) [%] | cell viability ([4]; 100 nM) [%] | cell viability ([4]; 1000 nM) [%] | cell viability ([4]; 10000 nM) [%] |
| --- | --- | --- | --- | --- | --- | --- | --- | --- | --- | --- | --- | --- | --- | --- | --- | --- | --- | --- | --- | --- |
| Sc1ncnc2nc[nH]c12 [6-mercaptopurine] | 59 | 63.4 | 70.1 | 72.4 | 56.6 | 79.6 | 88.3 | 84.9 | 84.9 | 93.2 | 92.6 | > 100 | 74.8 | 97.9 | 88 | 80.3 | > 100 | 86.2 | 75.1 | 73 |
| Cc1noc2c1-c1ccccc1C(c1ccc(Cl)cc1)=N[C@H]2CC(N)=O [CPI-0610] | 68.5 | 91.9 | 29.6 | 27.8 | 39.2 | 90.2 | 95.2 | 87.3 | 52.2 | 46.9 | > 100 | 84.9 | 86.4 | 60.3 | 60.7 | 93.5 | 78.8 | 96.1 | 70 | 82.7 |
| Nc1ccn([C@@H]2O[C@H](CO)[C@@H](O)[C@@H]2O)c(=O)n1 [Cytarabine] | 89.9 | 45.1 | 67 | 54.1 | 13.9 | 91.9 | 68.8 | 85.2 | 60.1 | 9.9 | 85.1 | 65.1 | 78.1 | 62.9 | 15.8 | 90.3 | 91.5 | 96.1 | 89.1 | 22.4 |
| CCN(CC)CCN(Cc1ccc(-c2ccc(C(F)(F)F)cc2)cc1)C(=O)Cn1c(SCc2ccc(F)cc2)nc(=O)c2c1CCC2 [Darapladib] | 66.6 | 77.8 | 12.3 | 93.5 | 4.94 | 74.1 | 80.5 | 74.2 | 71.2 | < 0 | 65.7 | 92.2 | 52.5 | 52.1 | 2.36 | 62.6 | 85.8 | 77.8 | 86.2 | 1.84 |
| CC12CCC(O)CC1CCC1C2CCC2(C)C(C3=CC(=O)OC3)CCC12O (stereo not given) [Digitoxigenin] | 71.9 | 52.2 | > 100 | 96.8 | > 100 | > 100 | 64.8 | 91.8 | 15 | 4.96 | 95 | 66.5 | 78.4 | 22.2 | 18.3 | 91.6 | 89 | 78.4 | 7.34 | 2.31 |
| C[C@H]1O[C@@H](O[C@H]2[C@@H](O)C[C@H](O[C@H]3[C@@H](O)C[C@H](O[C@H]4CC[C@@]5(C)[C@H](CC[C@@H]6[C@@H]5C[C@@H](O)[C@]5(C)[C@@H](C7=CC(=O)OC7)CC[C@]65O)C4)O[C@@H]3C)O[C@@H]2C)C[C@H](O)[C@@H]1O [Digoxin] | 91.9 | 57.7 | 98.8 | 91.5 | > 100 | 95.8 | 99 | 88.5 | 5.75 | 3.42 | 82.1 | 90.3 | 69.7 | 18.9 | 13.5 | 84.6 | 96.1 | 67.2 | 6.59 | 5.15 |
| Clc1ccc(COC(Cn2ccnc2)c2ccc(Cl)cc2Cl)cc1 (stereo not given) [Econazole] | 70.3 | 85.8 | 73.5 | 34.5 | < 0 | 77.8 | 95 | 70.2 | 75 | 60.6 | 64.1 | 90.1 | 82.3 | 76.3 | 0.228 | 93.3 | 86.9 | 81 | > 100 | 85.3 |
| C[C@]12O[C@H](C[C@]1(O)CO)n1c3ccccc3c3c4c(c5c6ccccc6n2c5c31)CNC4=O [Lestaurtinib] | 64.5 | 34.5 | 45.6 | 73.9 | 9.05 | 89 | 46.6 | 48.2 | 57.7 | 1.29 | 80.7 | 43.5 | 77.9 | 40.6 | 4.31 | 87.6 | 75.8 | 61.9 | 54.6 | 0.632 |
| CC(Cc1ccc(O)c(O)c1)C(C)Cc1ccc(O)c(O)c1 (stereo not given) [Masoprocol] | 56.6 | 47.4 | 89.9 | 42.2 | > 100 | 93.2 | 97.5 | 98.5 | 70.5 | 56.2 | > 100 | 85.7 | 96.7 | 55.8 | 68.1 | 97.6 | 84.9 | 95.6 | 69.7 | 6.74 |
| COc1c(C)c2c(c(O)c1C/C=C(\C)CCC(=O)O)C(=O)OC2 [Mycophenolic acid] | 49.6 | 77.5 | 79.2 | 69.8 | 53.1 | 61 | 90.7 | 73.5 | 68.1 | 63.1 | 75.3 | 83.7 | 65.6 | 95.5 | 93.4 | 69.4 | 92.3 | 75.5 | 91.8 | 43.8 |
| CCOC(=O)N1c2ccc(C(F)(F)F)cc2[C@@H](N(Cc2cc(C(F)(F)F)cc(C(F)(F)F)c2)C(=O)OC)C[C@H]1CC [Torcetrapib] | 49.2 | 62.1 | 78.5 | 44.5 | 38.2 | > 100 | 71.5 | 92.1 | 81.1 | 48.2 | 84.7 | 51 | > 100 | 78.3 | 41.7 | 92.3 | 84.8 | 96.1 | 93.3 | 65.7 |
